In the NIST ThermoML archive (doi:10.1016/j.fluid.2006.05.032):

Assay: xn = mol fraction of the nth substance listed
Settings: Liquid, Vibrating tube method

Cc1ccccc1 [toluene] + CCCO
mass density [kg/m3]
Settings | x2 = 0 | x2 = 0.125 | x2 = 0.25 | x2 = 0.375 | x2 = 0.5 | x2 = 0.625 | x2 = 0.75 | x2 = 0.875
293.15 K, 100 kPa | 867.1 | 860.6 | 854.5 | 848.1 | 841.2 | 833.5 | 825.1 | 815.3
293.15 K, 5000 kPa | 870.6 | 864.1 | 858.2 | 851.7 | 844.7 | 837 | 828.7 | 818.9
293.15 K, 10000 kPa | 874.2 | 867.7 | 861.7 | 855.1 | 848.4 | 840.6 | 832.3 | 822.6
293.15 K, 15000 kPa | 877.6 | 871.2 | 865.2 | 858.6 | 851.8 | 844.1 | 835.8 | 826.1
293.15 K, 20000 kPa | 881.1 | 874.5 | 868.5 | 861.9 | 855.1 | 847.4 | 839.2 | 829.4
293.15 K, 25000 kPa | 884.2 | 877.8 | 871.7 | 865.1 | 858.3 | 850.6 | 842.4 | 832.6
293.15 K, 30000 kPa | 887.3 | 880.9 | 874.9 | 868.3 | 861.5 | 853.7 | 845.4 | 835.7
293.15 K, 35000 kPa | 890.3 | 883.9 | 877.9 | 871.3 | 864.5 | 856.7 | 848.4 | 838.7
293.15 K, 40000 kPa | 893.3 | 886.9 | 880.9 | 874.2 | 867.4 | 859.7 | 851.3 | 841.7
293.15 K, 45000 kPa | 896.1 | 889.7 | 883.7 | 877.1 | 870.3 | 862.6 | 854.1 | 844.4
293.15 K, 50000 kPa | 898.9 | 892.5 | 886.5 | 879.9 | 873.1 | 865.3 | 856.9 | 847.2
293.15 K, 55000 kPa | 901.6 | 895.2 | 889.2 | 882.6 | 875.7 | 868 | 859.6 | 849.7
293.15 K, 60000 kPa | 904.2 | 897.9 | 891.8 | 885.2 | 878.3 | 870.6 | 862.1 | 852.3
293.15 K, 65000 kPa | 906.7 | 900.5 | 894.4 | 887.7 | 880.9 | 873.1 | 864.7 | 854.8
303.15 K, 100 kPa | 857.5 | 851.1 | 845 | 838.6 | 832 | 824.4 | 816.1 | 806.6
303.15 K, 5000 kPa | 861.4 | 855 | 848.9 | 842.4 | 835.9 | 828.3 | 820.1 | 810.6
303.15 K, 10000 kPa | 865.1 | 858.8 | 852.7 | 846.2 | 839.8 | 832.2 | 824 | 814.3
303.15 K, 15000 kPa | 869 | 862.4 | 856.4 | 849.9 | 843.4 | 835.8 | 827.8 | 818.3
303.15 K, 20000 kPa | 872.4 | 866 | 859.9 | 853.4 | 846.9 | 839.4 | 831.3 | 821.7
303.15 K, 25000 kPa | 875.8 | 869.4 | 863.3 | 856.8 | 850.4 | 842.8 | 834.6 | 825.2
303.15 K, 30000 kPa | 879 | 872.6 | 866.6 | 860.1 | 853.5 | 846 | 837.7 | 828.3
303.15 K, 35000 kPa | 882.1 | 875.8 | 869.8 | 863.3 | 856.7 | 849.2 | 840.8 | 831.4
303.15 K, 40000 kPa | 885.2 | 878.9 | 872.8 | 866.4 | 859.7 | 852.3 | 843.9 | 834.4
303.15 K, 45000 kPa | 888.2 | 881.8 | 875.6 | 869.3 | 862.6 | 855.1 | 846.9 | 837.3
303.15 K, 50000 kPa | 891.1 | 884.8 | 878.5 | 872.2 | 865.5 | 858 | 849.7 | 840.1
303.15 K, 55000 kPa | 894 | 887.6 | 881.4 | 875.1 | 868.6 | 860.9 | 852.5 | 843
303.15 K, 60000 kPa | 896.7 | 890.3 | 884.1 | 877.8 | 871.1 | 863.6 | 855.2 | 845.6
303.15 K, 65000 kPa | 899.2 | 893 | 886.7 | 880.4 | 873.7 | 866.1 | 857.8 | 848.2
313.15 K, 100 kPa | 847.8 | 841.3 | 835.1 | 829 | 822.4 | 815.2 | 807.3 | 797.9
313.15 K, 5000 kPa | 852 | 845.5 | 839.3 | 833.1 | 826.6 | 819.3 | 811.5 | 802.1
313.15 K, 10000 kPa | 856.1 | 849.6 | 843.4 | 837.2 | 830.7 | 823.4 | 815.5 | 806.2
313.15 K, 15000 kPa | 859.9 | 853.6 | 847.4 | 841.2 | 834.7 | 827.5 | 819.3 | 810
313.15 K, 20000 kPa | 863.5 | 857.3 | 851.1 | 844.9 | 838.4 | 831.2 | 823 | 813.6
313.15 K, 25000 kPa | 867.1 | 860.9 | 854.7 | 848.5 | 841.9 | 834.7 | 826.5 | 817.1
313.15 K, 30000 kPa | 870.5 | 864.3 | 858.1 | 851.9 | 845.4 | 838.1 | 829.9 | 820.5
313.15 K, 35000 kPa | 873.8 | 867.6 | 861.5 | 855.3 | 848.7 | 841.4 | 833.2 | 823.7
313.15 K, 40000 kPa | 877 | 870.8 | 864.7 | 858.4 | 851.9 | 844.6 | 836.4 | 826.9
313.15 K, 45000 kPa | 880.2 | 874 | 867.8 | 861.6 | 855 | 847.7 | 839.4 | 830
313.15 K, 50000 kPa | 883.3 | 876.9 | 870.8 | 864.5 | 857.9 | 850.6 | 842.5 | 833
313.15 K, 55000 kPa | 886.2 | 879.9 | 873.8 | 867.5 | 860.9 | 853.5 | 845.3 | 835.9
313.15 K, 60000 kPa | 889 | 882.7 | 876.6 | 870.4 | 863.7 | 856.3 | 848.2 | 838.7
313.15 K, 65000 kPa | 891.8 | 885.5 | 879.3 | 873.1 | 866.5 | 859.1 | 850.9 | 841.4
323.15 K, 100 kPa | 838.4 | 831.7 | 825.5 | 819.3 | 812.9 | 805.9 | 798.2 | 789.3
323.15 K, 5000 kPa | 842.7 | 836.2 | 829.9 | 823.8 | 817.3 | 810.3 | 802.6 | 793.6
323.15 K, 10000 kPa | 847 | 840.5 | 834.3 | 828 | 821.6 | 814.5 | 806.9 | 797.9
323.15 K, 15000 kPa | 851.1 | 844.5 | 838.4 | 832.2 | 825.8 | 818.7 | 810.9 | 801.8
323.15 K, 20000 kPa | 855 | 848.5 | 842.3 | 836.1 | 829.7 | 822.6 | 814.8 | 805.7
323.15 K, 25000 kPa | 858.9 | 852.2 | 846.1 | 839.9 | 833.5 | 826.3 | 818.6 | 809.5
323.15 K, 30000 kPa | 862.5 | 855.9 | 849.7 | 843.5 | 837.1 | 829.9 | 822.2 | 813
